Laboratory results as given in patent US20200172483A1, “HETEROCYCLIC SMALL MOLECULE MODULATORS OF HUMAN STING” (Curadev Pharma Limited, priority 2017, published 2020).
Like-named read-outs stand apart in the source and are kept apart here.

How the values were obtained:
[1] = molecular target: T1, WT/R232 STING protein (Homo sapiens, UniProt Q86WV6, H232R); experiment: Luciferase reporter assay in HEK293T-hSTING-Luciferase cells (R232); format: cell-based; conditions: 20 hr stimulation, EC50 range
T1 construct: host or cells: HEK293T
In short: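 Readout is fold-induction over baseline of secreted luciferase, measured by luminescence after 20 hr compound stimulation. Cells: clonally selected HEK293T stably carrying hSTING (R232) and a luciferase reporter under five tandem ISREs fused to an ISG54 minimal promoter.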

[2] = tested on: IRF pathway; experiment: Reporter gene expression assay for IRF axis in THP1-Dual cells (secreted Lucia luciferase); format: cell-based, human; conditions: Homo sapiens, THP1-Dual, 20 h, 20 hr stimulation, QUANTI-Luc, EC50 range, read-out: THP-IRF activity
In short: (§1)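 THP1-Dual cells (THP-1 monocytes with inducible NF-κB-SEAP and IRF-Lucia reporters; 5×10^5 cells) were stimulated with compounds for 20 hr. Secreted SEAP (QUANTI-Blue) and Lucia luciferase (QUANTI-Luc) were then measured in the supernatant. EC50 values are reported as ranges.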

[3] = molecular target: T2, hSTING (H232) (Homo sapiens, UniProt Q86WV6); experiment: Luciferase reporter assay in HEK293T-hSTING-Luciferase cells (H232/REF polymorph); format: cell-based; conditions: EC50 range
T2 construct: host or cells: HEK293T
In short: (§2)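 Clonal HEK293T lines stably expressing the hSTING variant (H232 or HAQ) plus an ISRE/ISG54-driven secreted luciferase reporter were stimulated with compounds for 20 hr. Supernatant luciferase measured by luminescence (Quanti-Luc).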

[4] = tested on: NF-κB pathway; experiment: Reporter gene expression assay for NFκB axis in THP1-Dual cells (secreted SEAP); format: cell-based, human; conditions: 20 hr stimulation, QUANTI-Blue SEAP, EC50 range, read-out: THP-NFKB activity
In short: as §1

[5] = molecular target: T3, hSTING (HAQ) (Homo sapiens, UniProt Q86WV6, G230A/H232R/R293Q/R71H); experiment: Luciferase reporter assay in HEK293T-hSTING-Luciferase cells (HAQ polymorph); format: cell-based; conditions: EC50 range
T3 construct: host or cells: HEK293T
In short: as §2

T1 sequence (Q86WV6 whole entry H232R): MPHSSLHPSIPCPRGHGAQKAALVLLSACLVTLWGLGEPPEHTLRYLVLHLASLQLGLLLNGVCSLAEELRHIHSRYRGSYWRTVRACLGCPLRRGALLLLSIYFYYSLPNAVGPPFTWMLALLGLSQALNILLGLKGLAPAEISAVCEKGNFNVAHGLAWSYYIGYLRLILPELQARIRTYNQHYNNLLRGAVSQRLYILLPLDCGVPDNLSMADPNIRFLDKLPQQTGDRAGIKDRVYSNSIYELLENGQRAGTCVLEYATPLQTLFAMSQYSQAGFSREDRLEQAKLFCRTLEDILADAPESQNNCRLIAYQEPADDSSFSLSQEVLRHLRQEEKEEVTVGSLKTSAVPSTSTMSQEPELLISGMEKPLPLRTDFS
T2 sequence (Q86WV6 whole entry): as the sequence (Q86WV6 whole entry H232R) above, with R232H counted along it
T3 sequence (Q86WV6 whole entry R71H/G230A/H232R/R293Q): as the sequence (Q86WV6 whole entry H232R) above, with R71H, G230A, R293Q counted along it

| EC50 [1] [µM] | EC50 [2] [µM] | EC50 [3] [µM] | EC50 ([4]; Homo sapiens, THP1-Dual, 20 h) [µM] | EC50 [5] [µM] | EC50 [4] [µM] | SMILES |
| --- | --- | --- | --- | --- | --- | --- |
| ≤ 1 | > 10 | 1 to 10 | > 10 | 1 to 10 |  | CC(C)C1(Cl)C(=O)N(Cc2c(F)cccc2Cl)c2cc(C(=O)NCc3c(F)cc(F)cc3F)ccc21 (stereo not shown) [Example 157, 3-chloro-1-(2-chloro-6-fluorobenzyl)-3-isopropyl-2-oxo-N-(2,4,6-trifluorobenzyl)indoline-6-carboxamide] |
| ≤ 1 | 1 to 10 | 1 to 10 | 1 to 10 | 1 to 10 |  | Cc1nn(CCO)c(CN2C(=O)C(C)(C)c3ccc(C(=O)NCc4cc5cc(F)ccc5o4)cc32)c1F [Example 119, 1-((4-fluoro-1-(2-hydroxyethyl)-3-methyl-1H-pyrazol-5-yl)methyl)-N-((5-fluorobenzofuran-2-yl)methyl)-3,3-dimethyl-2-oxoindoline-6-carboxamide] |
| ≤ 1 | > 10 | 1 to 10 |  | 1 to 10 | 1 to 10 | CC1(Cl)C(=O)N(Cc2cc(F)cc(F)c2)c2cc(C(=O)NCc3c(F)cc(F)cc3F)ccc21 (stereo not shown) [Example 144, 3-Chloro-1-(3,5-difluorobenzyl)-3-methyl-2-oxo-N-(2,4,6 trifluorobenzyl) indoline-6-carboxamide] |
| 1 to 10 | > 10 | 1 to 10 | > 10 | 1 to 10 |  | CC1(C#N)C(=O)N(Cc2cc(F)cc(F)c2)c2cc(C(=O)NCc3cc4ccccc4o3)ccc21 (stereo not shown) [Example 92, N-(benzofuran-2-ylmethyl)-3-cyano-1-(3,5-difluorobenzyl)-3-methyl-2-oxoindoline-6-carboxamide] |
| ≤ 1 | 1 to 10 | 1 to 10 | 1 to 10 | 1 to 10 |  | CC1(C)C(=O)N(Cc2cccc(F)c2)c2cc(C(=O)NCc3c(F)cc(F)cc3F)ccc21 [Example 14, 1-(3-fluorobenzyl)-3,3-dimethyl-2-oxo-N-(2,4,6-trifluorobenzyl)indoline-6-carboxamide] |
| 1 to 10 | 1 to 10 | 1 to 10 | 1 to 10 | 1 to 10 |  | Cc1cc(CN2C(=O)C(C)(C)c3ccc(C(=O)NCc4c(F)cc(F)cc4F)cc32)nn1C [Example 81, 1-((1,5-dimethyl-1H-pyrazol-3-yl)methyl)-3,3-dimethyl-2-oxo-N-(2,4,6-trifluorobenzyl)indoline-6-carboxamide] |
| 1 to 10 | > 10 | 1 to 10 | > 10 | 1 to 10 |  | Cc1ccc(CNC(=O)c2ccc3c(c2)N(Cc2c(F)cccc2F)C(=O)C3(C)C)o1 [Example 50, 1-(2,6-difluorobenzyl)-3,3-dimethyl-N-((5-methylfuran-2-yl)methyl)-2-oxoindoline-6-carboxamide] |
| ≤ 1 | ≤ 1 | ≤ 1 | ≤ 1 | ≤ 1 |  | COc1cccc(F)c1CN1C(=O)C(C)(C)c2ccc(C(=O)NCc3c(F)cc(F)cc3F)cc21 [Example 102, 1-(2-fluoro-6-methoxybenzyl)-3,3-dimethyl-2-oxo-N-(2,4,6-trifluorobenzyl)indoline-6-carboxamide] |
| ≤ 1 | > 10 | ≤ 1 | > 10 | 1 to 10 |  | CC1(C)C(=O)N(Cc2noc3ccccc23)c2cc(C(=O)NCc3c(F)cc(F)cc3F)ccc21 [Example 98, 1-(benzo[d]isoxazol-3-ylmethyl)-3,3-dimethyl-2-oxo-N-(2,4,6-trifluorobenzyl)indoline-6-carboxamide] |
| 1 to 10 | > 10 | 1 to 10 | > 10 | 1 to 10 |  | Cc1cc(CN2C(=O)C(C)(C)c3ccc(C(=O)NCc4c(F)cc(F)cc4F)cc32)ccn1 [Example 54, 3,3-dimethyl-1-((2-methylpyridin-4-yl)methyl)-2-oxo-N-(2,4,6-trifluorobenzyl)indoline-6-carboxamide] |
| ≤ 1 | > 10 | > 10 | > 10 | > 10 |  | CCC1(Cl)C(=O)N(Cc2c(F)cccc2Cl)c2cc(C(=O)NCc3c(F)cc(F)cc3F)ccc21 (stereo not shown) [Example 155, 3-chloro-1-(2-chloro-6-fluorobenzyl)-3-ethyl-2-oxo-N-(2,4,6-trifluorobenzyl)indoline-6-carboxamide] |
| ≤ 1 | > 10 | 1 to 10 | 1 to 10 | 1 to 10 |  | CC1(C)C(=O)N(Cc2c(F)cccc2Cl)c2cc(C(=O)NCc3ccc(F)cc3)ccc21 [Example 25, 1-(2-chloro-6-fluorobenzyl)-N-(4-fluorobenzyl)-3,3-dimethyl-2-oxoindoline-6-carboxamide] |
| ≤ 1 | 1 to 10 | 1 to 10 | 1 to 10 | 1 to 10 |  | CCn1nc(C)cc1CN1C(=O)C(C)(C)c2ccc(C(=O)NCc3c(F)cc(F)cc3F)cc21 [Example 117, 1-((1-ethyl-3-methyl-1H-pyrazol-5-yl)methyl)-3,3-dimethyl-2-oxo-N-(2,4,6-trifluorobenzyl)indoline-6-carboxamide] |
| 1 to 10 | > 10 | 1 to 10 | > 10 | 1 to 10 |  | CC1(C)C(=O)N(Cc2cc(F)cc(F)c2)c2nc(C(=O)NCc3cc4ccccc4o3)ccc21 [Example 182, N-(benzofuran-2-ylmethyl)-1-(3,5-difluorobenzyl)-3,3-dimethyl-2-oxo-2,3-dihydro-1H-pyrrolo[2,3-b]pyridine-6-carboxamide] |
| 1 to 10 | > 10 | 1 to 10 | > 10 | 1 to 10 |  | O=C(NCc1c(F)cc(F)cc1F)c1ccc2c(c1)N(Cc1cc(F)cc(F)c1)C(=O)C21CCCC1 [Example 137, 1′(3,5-difluorobenzyl)-2′-oxo-N-(2,4,6-trifluorobenzyl)spiro[cyclopentane-1,3′-indoline]-6′-carboxamide] |
| 1 to 10 | > 10 | 1 to 10 | > 10 | 1 to 10 |  | Cc1ccc(CNC(=O)c2ccc3c(n2)N(Cc2cc(F)cc(F)c2)C(=O)C3(C)C)o1 [Example 188, 1-(3,5-difluorobenzyl)-3,3-dimethyl-N-((5-methylfuran-2-yl)methyl)-2-oxo-2,3-dihydro-1H-pyrrolo[2,3-b]pyridine-6-carboxamide] |
| ≤ 1 | 1 to 10 | ≤ 1 | 1 to 10 | ≤ 1 |  | CC1(C)C(=O)N(Cc2c(F)cccc2OC(F)F)c2cc(C(=O)NCc3c(F)cc(F)cc3F)ccc21 [Example 111, 1-(2-(difluoromethoxy)-6-fluorobenzyl)-3,3-dimethyl-2-oxo-N-(2,4,6-trifluorobenzyl)indoline-6-carboxamide] |
| 1 to 10 | > 10 | 1 to 10 | > 10 | 1 to 10 |  | Cc1cccc(CNC(=O)c2ccc3c(c2)N(Cc2cc(F)cc(F)c2)C(=O)C3(C)C)c1 [Example 4, 1-(3,5-difluorobenzyl)-3,3-dimethyl-N-(3-methylbenzyl)-2-oxoindoline-6-carboxamide] |
| ≤ 1 | 1 to 10 | ≤ 1 | 1 to 10 | ≤ 1 |  | COc1cc(F)cc(CN2C(=O)C(C)(C)c3ccc(C(=O)NCc4c(F)cc(F)cc4F)cc32)c1 [Example 89, 1-(3-fluoro-5-methoxybenzyl)-3,3-dimethyl-2-oxo-N-(2,4,6-trifluorobenzyl)indoline-6-carboxamide] |
| ≤ 1 | 1 to 10 | ≤ 1 | 1 to 10 | ≤ 1 |  | CC1(C)C(=O)N(Cc2ccccc2F)c2cc(C(=O)NCc3c(F)cc(F)cc3F)ccc21 [Example 6, 1-(2-fluorobenzyl)-3,3-dimethyl-2-oxo-N-(2,4,6-trifluorobenzyl)indoline-6-carboxamide] |
| ≤ 1 | 1 to 10 | ≤ 1 | 1 to 10 | ≤ 1 |  | Cc1cccc(CN2C(=O)C(C)(C)c3ccc(C(=O)NCc4c(F)cc(F)cc4F)cc32)c1F [Example 73, 1-(2-fluoro-3-methylbenzyl)-3,3-dimethyl-2-oxo-N-(2,4,6-trifluorobenzyl)indoline-6-carboxamide] |
| 1 to 10 | > 10 | 1 to 10 | > 10 | 1 to 10 |  | Cc1ccc(CNC(=O)c2ccc3c(c2)N(Cc2cc(F)cc(F)c2)C(=O)C3(C)C)o1 [Example 16, 1-(3,5-difluorobenzyl)-3,3-dimethyl-N-((5-methylfuran-2-yl)methyl)-2-oxoindoline-6-carboxamide] |
| 1 to 10 | > 10 | > 10 | > 10 | 1 to 10 |  | Cc1ccc(CNC(=O)c2ccc3c(c2)N(Cc2ccc(F)cc2)C(=O)C3(C)C)o1 [Example 60, 1-(4-fluorobenzyl)-3,3-dimethyl-N-((5-methylfuran-2-yl)methyl)-2-oxoindoline-6-carboxamide] |
